Test systems include KM12; COLO 205; SF-295; SK-MEL-28; NCI/ADR-RES; MDA-N; UO-31; NCI-H226; RPMI-8226; HCC 2998; CCRF-CEM; HOP-62; CAKI-1; LOX IMVI; NCI-H23; SNB-19; SK-MEL-5; Hs-578T; PC-3; M14.
Holding throughout (assay): growth of human tumour cells (NCI), 48 h

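Grown in 96-well plates, cells were treated for 48 hours with each compound at five concentrations. Insufficient inhibition: endpoint recorded as highest concentration tested. At the GI50, growth is halved.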 Active and inactive are the calls of the source. Rule as the data show it: active = GI50 up to about 1.1 µM and inactive = higher. Peptide text beside a SMILES is read from it. * marks the point of attachment. Trt = c1ccc(C(c2ccccc2)(c2ccccc2)*)cc1; Cbz = O=C(OCc1ccccc1)*

Turning to `CC1=C(c2ccccc2)NC(=S)C(C)C(c2ccccc2)=N1` (centres undefined), the GI50 in the assay with KM12 is 21.2 µM (inactive); in the assay with COLO 205, 30.9 µM (inactive); in the assay with SF-295 it was 29.1 µM (inactive); in the assay with SK-MEL-28, 38.9 µM (inactive); in the assay with NCI/ADR-RES, 22.8 µM (inactive); with MDA-N it was 16.9 µM (inactive). The GI50 in the assay with UO-31 was 19.6 µM (inactive); in the assay on NCI-H226, 52.4 µM (inactive); in the assay with RPMI-8226 it was 15.4 µM (inactive); in the assay on HCC 2998 it was 34.3 µM (inactive); with CCRF-CEM, 12.1 µM (inactive); with HOP-62, > 100 µM (inactive). Besides, the GI50 is 56.6 µM (inactive) with CAKI-1; 30 µM (inactive) in the assay on LOX IMVI; 9.91 µM (inactive) in the assay with NCI-H23; > 100 µM (inactive) in the assay with SNB-19; 24.9 µM (inactive) with SK-MEL-5.

In the case of `Nc1nc(N)c(C2=CCNCC2)c(=O)[nH]1`, the GI50 with KM12, in the assay with COLO 205, with SF-295, in the assay with SK-MEL-28, with NCI/ADR-RES and in the assay with Hs-578T was > 100 µM (inactive) in each case. In addition, the GI50 with UO-31, with NCI-H226, in the assay with PC-3, in the assay with RPMI-8226, in the assay on CCRF-CEM and with HOP-62 was > 100 µM (inactive) each time. For the same molecule, the GI50 in the assay on CAKI-1, in the assay with M14, in the assay with NCI-H23, in the assay with SNB-19 and in the assay on SK-MEL-5 was > 100 µM (inactive) throughout.

As to `CC(C)(C)OC(=O)NCC(O)CNC(=O)OC(C)(C)C`, the GI50 in the assay with KM12, with COLO 205, in the assay with SF-295, in the assay on SK-MEL-28, in the assay on NCI/ADR-RES and in the assay on Hs-578T was > 100 µM (inactive) each time. Moreover, the GI50 in the assay on UO-31, in the assay with NCI-H226, in the assay on PC-3, with RPMI-8226, with HCC 2998 and in the assay on CCRF-CEM was > 100 µM (inactive) throughout. Further, the GI50 in the assay on HOP-62, with CAKI-1, with M14, in the assay with LOX IMVI, with NCI-H23 and with SNB-19 was > 100 µM (inactive) each time. Moreover, in the assay with SK-MEL-5, the GI50 was > 100 µM (inactive).

In the case of `O=C1CCCCC(=O)OC2(CCCCC2=O)CC1` (centres undefined), the GI50 in the assay with KM12, in the assay on COLO 205, with SF-295, in the assay on SK-MEL-28, with NCI/ADR-RES and in the assay on MDA-N was > 100 µM (inactive) in each case. Moreover, the GI50 in the assay on UO-31, in the assay on NCI-H226, in the assay with PC-3, in the assay on RPMI-8226, in the assay on HCC 2998 and in the assay on CCRF-CEM was > 100 µM (inactive) each time. Moreover, the GI50 in the assay on HOP-62, in the assay with CAKI-1, in the assay with M14, with NCI-H23 and with SK-MEL-5 was > 100 µM (inactive) throughout.

Consider `N=C(N)NS(=O)(=O)c1ccc(NC(=O)c2cccc3c(O)c4ccccc4nc23)cc1`, for which the GI50 in the assay on KM12 was > 100 µM (inactive); in the assay on COLO 205 it was > 100 µM (inactive); with SF-295 it was 60.3 µM (inactive); in the assay on SK-MEL-28, > 100 µM (inactive); in the assay with NCI/ADR-RES it was > 100 µM (inactive); in the assay with Hs-578T, > 100 µM (inactive). Further, the GI50 was > 100 µM (inactive) in the assay with UO-31; > 100 µM (inactive) in the assay on NCI-H226; > 100 µM (inactive) in the assay with PC-3; > 100 µM (inactive) with RPMI-8226; > 71.8 µM (inactive) in the assay with HCC 2998; 28.9 µM (inactive) with CCRF-CEM. The GI50 in the assay with HOP-62 is > 78.5 µM (inactive); in the assay with CAKI-1 it was > 100 µM (inactive); in the assay with M14, > 100 µM (inactive); in the assay with LOX IMVI, > 75 µM (inactive); with NCI-H23 it was > 92.3 µM (inactive); in the assay on SNB-19, 59.4 µM (inactive). Further, the GI50 with SK-MEL-5 was > 100 µM (inactive).

With `OC12COc3ccccc3C1Oc1ccccc1C2` (centres undefined), the GI50 in the assay on KM12, in the assay with COLO 205, in the assay with SF-295, in the assay with NCI/ADR-RES, in the assay on MDA-N and in the assay with UO-31 was > 100 µM (inactive) in each case. Moreover, the GI50 with NCI-H226, in the assay with PC-3, in the assay with RPMI-8226, in the assay with HCC 2998, with CCRF-CEM and in the assay on HOP-62 was > 100 µM (inactive) in each case. The GI50 in the assay on CAKI-1, with M14, in the assay with LOX IMVI, in the assay with NCI-H23 and with SK-MEL-5 was > 100 µM (inactive) in each case.

Take `CCN(CC)CCC(=O)/C=C/c1ccc(Cl)c(Cl)c1`: the GI50 was 2.36 µM (inactive) with KM12; 3.85 µM (inactive) with COLO 205; > 10 µM (inactive) in the assay on SF-295; 1.99 µM (inactive) in the assay with NCI/ADR-RES; 2.63 µM (inactive) with MDA-N; > 10 µM (inactive) in the assay with NCI-H226. The GI50 with PC-3 is 4.31 µM (inactive); with RPMI-8226 it was 0.127 µM (active); with HCC 2998 it was 3.36 µM (inactive); in the assay on CCRF-CEM, 2.45 µM (inactive); in the assay with HOP-62, > 10 µM (inactive); in the assay with M14, 3.52 µM (inactive). Moreover, the GI50 in the assay with NCI-H23 was > 10 µM (inactive); in the assay with SNB-19 it was 5.79 µM (inactive).

Regarding `COC(=O)C(CO)NC(=O)C(CSC(c1ccccc1)(c1ccccc1)c1ccccc1)NC(=O)OCc1ccccc1` (centres undefined) (Cbz-Cys(Trt)-Ser-OMe; configuration not given here), the GI50 with KM12 is 16.1 µM (inactive); in the assay with COLO 205, 15.6 µM (inactive); in the assay with SF-295 it was 17.1 µM (inactive); with SK-MEL-28 it was 17 µM (inactive); in the assay with NCI/ADR-RES it was 16.8 µM (inactive); with Hs-578T, 18.5 µM (inactive). The GI50 in the assay on UO-31 is 14.5 µM (inactive); in the assay on NCI-H226, 12.2 µM (inactive); in the assay with PC-3 it was 12.3 µM (inactive); in the assay on RPMI-8226, 0.36 µM (active); in the assay with HCC 2998 it was 14.9 µM (inactive); in the assay with CCRF-CEM, 0.0398 µM (active). The GI50 was 17.3 µM (inactive) in the assay on HOP-62; 16.6 µM (inactive) in the assay with CAKI-1; 19.4 µM (inactive) with M14; 15.7 µM (inactive) in the assay with LOX IMVI; 17.9 µM (inactive) with NCI-H23; 19.5 µM (inactive) in the assay on SNB-19. Also, the GI50 in the assay on SK-MEL-5 was 15.1 µM (inactive).

The values above are taken from ChEMBL document CHEMBL1201862, “PubChem BioAssay data set” (2004).
